Consider four compounds from patent US4216127A, “Enkephalin analogues” (American Home Products Corporation, priority 1979, dated 1980).

Square brackets hold non-standard residues; d marks the D form. Ends that are not written are not given here.

One assay relates to CF-1 mice. The experiment in a line: phenylbenzoquinone induced writhing test (modified Siegmund procedure). In kind it is in vivo. The procedure: Biol. Med. 95 729-731 (1957), in which groups of ten CF-1 mice were administered, subcutaneously, known dosages of N(Me)Tyr--D--Asn--Gly--N(Me)Phe--D--Asn--NH2, as a compound representative of the group of compounds of this invention. Five minutes later, each animal received, i.p., 0.25 ml. of a 0.02 percent phenylbenzoquinone solution. The animals were observed over a ten minute period following the phenylbenzoquinone injection for the presence of writhing. […] The dose-response analysis was then performed according to Litchfiled et al., J. Pharmacol. exp. Therap. 96 99--113(1949). The ED50 for the test compound was 1.0 mg/kg (0.62-1.6) at 30 minutes by subcutaneous administration.

The conditions of assay [1]: intracerebral (icv) administration; cited from earlier work.
The conditions of assay [2]: intravenous administration; more potent than morphine; cited from earlier work.

In the case of `CC(=O)O.CN[C@@H](Cc1ccc(O)cc1)C(=O)N[C@H](CC(N)=O)C(=O)NCC(=O)N(C)[C@@H](Cc1ccccc1)C(=O)N[C@H](CC(N)=O)C(N)=O` [N-Methyl-L-tyrosyl-D-asparaginyl-glycyl-N-methyl-L-phenylalanyl-D-asparaginyl amide acetate], the “animals in which analgesia was observed” value in the assay with CF-1 mice (dose of 10 mg/kg, same procedure, for a period of forty five minutes) is on record as 100%. Further, in the assay with CF-1 mice (subcutaneous administration, at 30 minutes, limits (0.62-1.6), groups of ten CF-1 mice), the “ED50 (analgesia, absence of writhing)” value is given as 1.0 mg/kg. For the compound Tyr--D--Ala--Gly--Phe--Met--NH2 [III], the “analgesic activity after icv administration” value in assay [1] is “potent and prolonged analgesia”. With “II: pentapeptide Tyr--Gly--Gly--Phe--X where X=Met, isolated by Hughes et al. (YGGFM; printed: Tyr--Gly--Gly--Phe--Met)”, the “analgesic activity after icv administration” value in assay [1] is “analgesic activity only after intracerebral (icv) administration”. For the compound Y[dM]GFP-NH2 [IV], the “potency relative to morphine” value in assay [2] was 5.5 times.
